Each compound was assayed against TNFα (Homo sapiens, UniProt P01375) (assay: TNF induced HEK-Blue assay (NF-kB-driven secreted alkaline phosphatase reporter)). Conditions: TNF induced HEK-Blue assay IC50 value, TNFα 0.5 ng/mL, HEK-Blue-CD40L cells, 18 h.
Type: cell-based
Outline: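 HEK-Blue-CD40L cells (NF-kB-driven SEAP reporter), 20,000/well, added after 30 min pre-incubation of compound (0.004–25 μM final) with TNFα 0.5 ng/mL final at 37 °C; 18 h incubation. SEAP read with QUANTI-Blue at 620 nm; IC50 from 4-parameter logistic fit, normalized to unstimulated and stimulated DMSO controls.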

TNFα, sequence (P01375 77-233 limits assumed): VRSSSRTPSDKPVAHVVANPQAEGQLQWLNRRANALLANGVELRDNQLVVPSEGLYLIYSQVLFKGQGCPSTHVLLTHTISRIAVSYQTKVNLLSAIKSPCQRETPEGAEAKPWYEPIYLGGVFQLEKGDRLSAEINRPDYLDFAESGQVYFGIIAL

C[C@@H](Nc1c(Cl)cnc2ccc(-c3ccc(C(C)(C)O)cc3)cc12)c1ccccc1F [Example 228, (R)-2-(4-(3-chloro-4-((1-(2-fluorophenyl)ethyl)amino)quinolin-6-yl)phenyl)propan-2-ol] and CC(C)C(Nc1c(Cl)cnc2ccc(-c3cnc(C(C)(C)O)nc3)cc12)c1ccccc1F (stereo not shown) [Example 189, 2-(5-(3-chloro-4-((1-(2-fluorophenyl)-2-methylpropyl)amino)quinolin-6-yl)pyrimidin-2-yl)propan-2-ol] cannot be ordered by IC50: < 1000 nM for the first, < 1000 nM for the second.

C[C@@H](Nc1c(Cl)cnc2ccc(-c3cnc(C(C)(C)O)nc3)cc12)c1cc(N2CCCC2)ccc1F [Example 364, (R)-2-(5-(3-chloro-4-((1-(2-fluoro-5-(pyrrolidin-1-yl)phenyl)ethyl)amino)quinolin-6-yl)pyrimidin-2-yl)propan-2-ol] was tested, and the IC50 was < 1000 nM.

Same assay, conditions: TNFα 0.5 ng/mL, HEK-Blue-CD40L cells, 18 h; read-out: TNF induced HEK-Blue assay IC50 value

First: CC(Nc1c(Cl)cnc2c(Cl)cc(-c3cnc(N4CCNC(=O)C4)nc3)cc12)c1ccccc1F (racemic) [Example 18, 4-(5-(3,8-dichloro-4-((1-(2-fluorophenyl)ethyl)amino)quinolin-6-yl)pyrimidin-2-yl)piperazin-2-one]
Second: C[C@@H](Nc1c(Cl)cnc2ccc(-c3cnc(N4CCNC(=O)C4)nc3)cc12)c1ccccc1F [Example 226, (R)-4-(5-(3-chloro-4-((1-(2-fluorophenyl)ethyl)amino)quinolin-6-yl)pyrimidin-2-yl)piperazin-2-one]
The IC50 of the first is higher: 1000 to 10000 nM for the first, < 1000 nM for the second. The second is the more potent here.

CCC(Nc1c(Cl)cnc2ccc(-c3cnc(C(C)(C)O)nc3)cc12)c1ccccn1 (racemic) [Example 52, 2-(5-(3-chloro-4-((1-(pyridin-2-yl)propyl)amino)quinolin-6-yl)pyrimidin-2-yl)propan-2-ol] and Cc1cnc2ccc(-c3cnc(C(C)(C)O)nc3)cc2c1N[C@H](C)c1ccccc1F [Example 240, (R)-2-(5-(4-((1-(2-fluorophenyl)ethyl)amino)-3-methylquinolin-6-yl)pyrimidin-2-yl)propan-2-ol] cannot be ordered by IC50: < 1000 nM for the first, < 1000 nM for the second.

COCC(C)(O)c1ncc(-c2cc3c(NC(C)c4ccccc4F)c(Cl)cnc3cc2F)cn1 (stereo not shown) [Example 293, 2-(5-(3-chloro-7-fluoro-4-((1-(2-fluorophenyl)ethyl)amino)quinolin-6-yl)pyrimidin-2-yl)-1-methoxypropan-2-ol] and C[C@@H](Nc1c(Cl)cnc2cc(F)c(-c3cnc(C(C)(C)O)nc3)cc12)c1cc(C#N)ccc1F [Example 379, (R)-3-(1-((3-chloro-7-fluoro-6-(2-(2-hydroxypropan-2-yl)pyrimidin-5-yl)quinolin-4-yl)amino)ethyl)-4-fluorobenzonitrile] cannot be ordered by IC50: < 1000 nM for the first, < 1000 nM for the second.

CC(Nc1c(Cl)cnc2ccc(-c3cnc(C(C)(C)O)nc3)cc12)[C@H]1CCCNC1 (single isomer, unassigned) [Example 97] and CC(Nc1c(Cl)cnc2ccc(-c3cnc(C(C)(C)O)nc3)cc12)c1nc(C(N)=O)ccc1F (racemic) [Example 28, 6-(1-((3-chloro-6-(2-(2-hydroxypropan-2-yl)pyrimidin-5-yl)quinolin-4-yl)amino)ethyl)-5-fluoropicolinamide] cannot be ordered by IC50: < 1000 nM for the first, < 1000 nM for the second.

Compared with COc1nc2ccc(-c3cnc(C(C)(C)O)nc3)cc2c(Nc2cc(C)ccc2C)c1C [Example 180, 2-(5-(4-(2,5-dimethylphenylamino)-2-methoxy-3-methylquinolin-6-yl)pyrimidin-2-yl)propan-2-ol], Cc1ccc(F)c([C@H](Nc2c(Cl)c(C)nc3ccc(-c4cnc(C(C)(C)O)nc4)cc23)C(F)F)c1 [Example 351, (S)-2-(5-(3-chloro-4-((2,2-difluoro-1-(2-fluoro-5-methylphenyl)ethyl)amino)-2-methylquinolin-6-yl)pyrimidin-2-yl)propan-2-ol] is lower in IC50: 10000 to 25000 nM for the first, < 1000 nM for the second. The second is the more potent here.

First: CC(Nc1c(Cl)cnc2ccc(-c3ccc(C(C)(C)O)cc3)cc12)c1cnccn1 (racemic) [Example 198, 2-(4-(3-chloro-4-((1-(pyrazin-2-yl)ethyl)amino)quinolin-6-yl)phenyl)propan-2-ol]
Second: CC(Nc1c(Cl)cnc2ccc(-c3ccc(C(C)(C)O)cc3)cc12)c1cccnc1 (racemic) [Example 166, 2-(4-(3-chloro-4-((1-(pyridin-3-yl)ethyl)amino)quinolin-6-yl)phenyl)propan-2-ol]
The IC50 of the first is lower: < 1000 nM for the first, 10000 to 25000 nM for the second.

Cc1ccncc1-c1ccc(F)c([C@@H](C)Nc2c(Cl)cnc3ccccc23)c1 [Example 529, (R)-3-chloro-N-(1-(2-fluoro-5-(4-methylpyridin-3-yl)phenyl)ethyl)quinolin-4-amine] and Cc1ccc(-c2ccc(F)c([C@@H](C)Nc3c(Cl)cnc4ccccc34)c2)cn1 [Example 518, (R)-3-chloro-N-(1-(2-fluoro-5-(6-methylpyridin-3-yl)phenyl)ethyl)quinolin-4-amine] cannot be ordered by IC50: < 1000 nM for the first, < 1000 nM for the second.

C[C@@H](Nc1c(Cl)cnc2ccc(Br)cc12)c1cc(-c2cncnc2)ccc1F [Example 532, (R)-6-bromo-3-chloro-N-(1-(2-fluoro-5-(pyrimidin-5-yl)phenyl)ethyl)quinolin-4-amine] and C[C@@H](Nc1c(Cl)cnc2ccc(-c3cnc(C(C)(C)O)nc3)cc12)c1cc(C(N)=O)ccc1F [Example 388, (R)-3-(1-((3-chloro-6-(2-(2-hydroxypropan-2-yl)pyrimidin-5-yl)quinolin-4-yl)amino)ethyl)-4-fluorobenzamide] cannot be ordered by IC50: < 1000 nM for the first, < 1000 nM for the second.

First: CC(Nc1c(Cl)cnc2cc(F)c(-c3cnc(N4CCNCC4)nc3)cc12)c1ccccc1F (single isomer, unassigned) [Example 608, 3-chloro-7-fluoro-N-(1-(2-fluorophenyl)ethyl)-6-(2-(piperazin-1-yl)pyrimidin-5-yl)quinolin-4-amine]
Second: C[C@@H](Nc1c(Cl)cnc2cc(F)c(-c3cnc(N4CCC(C(=O)O)C4)nc3)cc12)c1ccccc1F (mixture of isomers) [Example 282, 1-(5-(3-chloro-7-fluoro-4-(((R)-1-(2-fluorophenyl)ethyl)amino)quinolin-6-yl)pyrimidin-2-yl)pyrrolidine-3-carboxylic acid]
The IC50 of the first is lower: < 1000 nM for the first, 1000 to 10000 nM for the second. The first is the more potent here.

O=C1CN(c2ncc(-c3ccc4ncc(Cl)c(N[C@@H](c5ccccc5F)C(F)F)c4c3)cn2)CCN1 [Example 79, (S)-4-(5-(3-chloro-4-((2,2-difluoro-1-(2-fluorophenyl)ethyl)amino)quinolin-6-yl)pyrimidin-2-yl)piperazin-2-one] and Cc1nc2ccc(-c3cnc(N4CCOCC4)nc3)cc2c(NC(C)c2ccccc2F)c1Cl (racemic) [Example 311, 3-chloro-N-(1-(2-fluorophenyl)ethyl)-2-methyl-6-(2-morpholinopyrimidin-5-yl)quinolin-4-amine] cannot be ordered by IC50: < 1000 nM for the first, < 1000 nM for the second.

First: CC(Nc1c(Cl)cnc2c(Cl)cc(-c3ccc(C(C)(C)O)cc3)cc12)c1ccccc1F (racemic) [Example 21, 2-(4-(3,8-dichloro-4-((1-(2-fluorophenyl)ethyl)amino)quinolin-6-yl)phenyl)propan-2-ol]
Second: CNS(=O)(=O)c1ccc(-c2cc(Cl)c3ncc(Cl)c(NC(C)c4ccccc4F)c3c2)cc1 (racemic) [Example 22, 4-(3,8-dichloro-4-((1-(2-fluorophenyl)ethyl)amino)quinolin-6-yl)-N-methylbenzenesulfonamide]
The IC50 of the first is lower: 1000 to 10000 nM for the first, 10000 to 25000 nM for the second. The first is the more potent here.

CC(Nc1c(Cl)cnc2cc(F)c(-c3cnc(C(C)(C)O)nc3)nc12)c1cccc(N)c1 (racemic) [Example 239, 2-(5-(8-((1-(3-aminophenyl)ethyl)amino)-7-chloro-3-fluoro-1,5-naphthyridin-2-yl)pyrimidin-2-yl)propan-2-ol] and Cc1nc2cc(F)c(-c3cnc(C(C)(C)O)nc3)nc2c(N[C@H](C)c2cccc(C#N)c2)c1Cl [Example 589, (R)-3-(1-((3-chloro-7-fluoro-6-(2-(2-hydroxypropan-2-yl)pyrimidin-5-yl)-2-methyl-1,5-naphthyridin-4-yl)amino)ethyl)benzonitrile] cannot be ordered by IC50: < 1000 nM for the first, < 1000 nM for the second.

Cc1nc2cc(F)c(-c3ccc(=O)[nH]c3)cc2c(N[C@H](C)c2cc(C#N)ccc2F)c1Cl [Example 450, (R)-3-(1-((3-chloro-7-fluoro-2-methyl-6-(6-oxo-1,6-dihydropyridin-3-yl)quinolin-4-yl)amino)ethyl)-4-fluorobenzonitrile] and Cc1nc2cc(F)c(-c3cnc(C(C)(C)O)nc3)cc2c(N[C@H](C)c2cc(C#N)ccc2F)c1Cl [Example 382, (R)-3-(1-((3-chloro-7-fluoro-6-(2-(2-hydroxypropan-2-yl)pyrimidin-5-yl)-2-methylquinolin-4-yl)amino)ethyl)-4-fluorobenzonitrile] cannot be ordered by IC50: < 1000 nM for the first, < 1000 nM for the second.

Cc1ccc(C)c(Nc2c(Cl)c(N)nc3ccc(-c4cnc(N5CCNC(=O)C5)nc4)cc23)c1 [Example 72, 4-(5-(2-amino-3-chloro-4-((2,5-dimethylphenyl)amino)quinolin-6-yl)pyrimidin-2-yl)piperazin-2-one] and C[C@@H](Nc1c(Cl)cnc2ccc(-c3cnc(C(C)(C)O)nc3)cc12)c1cc(-c2ccc(N)nc2)ccc1F [Example 348, (R)-2-(5-(4-((1-(5-(6-aminopyridin-3-yl)-2-fluorophenyl)ethyl)amino)-3-chloroquinolin-6-yl)pyrimidin-2-yl)propan-2-ol] cannot be ordered by IC50: < 1000 nM for the first, < 1000 nM for the second.

CC(Nc1c(Cl)cnc2ccc(-c3ccc(C(C)(C)O)cc3)cc12)c1cnsc1 (racemic) [Example 172, 2-(4-(3-chloro-4-((1-(isothiazol-4-yl)ethyl)amino)quinolin-6-yl)phenyl)propan-2-ol] and CC(Nc1c(Cl)cnc2ccc(-c3ccc(C(C)(C)O)cc3)cc12)c1ccnn1C (racemic) [Example 195, 2-(4-(3-chloro-4-((1-(1-methyl-1H-pyrazol-5-yl)ethyl)amino)quinolin-6-yl)phenyl)propan-2-ol] fall in the same range of IC50: 10000 to 25000 nM for the first, 10000 to 25000 nM for the second.

CC(Nc1c(Cl)cnc2cc(F)c(-c3cnc(N4CCC(O)C4)cn3)cc12)c1ccccc1F (stereo not shown) [Example 284, 1-(5-(3-chloro-7-fluoro-4-((1-(2-fluorophenyl)ethyl)amino)quinolin-6-yl)pyrazin-2-yl)pyrrolidin-3-ol] showed an IC50 of 1000 to 10000 nM.
